# Tests used:
# carbonic anhydrase II = carbonic anhydrase II (Homo sapiens (Human), UniProt P00918); experiment: Carbonic anhydrase II enzyme activity inhibition (4-NPA esterase activity); type: biochemical
# [1] = system: human osteo- and soft tissue sarcoma SJCRH30 cell line; experiment: Cell growth inhibition 2, SJCRH30; type: cell-based; conditions: 384-well plate
# [2] = system: Human colon cancer HCT-116 cell lines; experiment: Antitumor effect on tumor cells transplanted into mice 1; type: in vivo
# Method: Human colon cancer HCT-116 cell lines were washed in PBS and suspended at a concentration of 4×10^7 cells/mL. 0.1 mL of this cell suspension was subcutaneously implanted in the right chest of 6-week-old BALB/cAJcl-nu/nu mice (produced by CLEA Japan, Inc.).
# (§1) The length and the width of the implanted tumor and the body weight were measured. The tumor volume (TV) was calculated using the following equation (equation D). TV(mm3)=(length×width^2)/2, wherein the unit of length and width is mm (equation D).
# When the TV reached 100 to 300 mm3, the animals were assigned to each group in accordance with a stratified randomization procedure. The day was considered day 1, the TV on the day was considered TV1, and the body weight on the day was considered BW1.
# A required amount of the test compound was weighed to prepare an administration solution.
# (§2) Thereafter, the length and the width of the tumor and the body weight (BWn) on day n were measured over time in the same manner, and the TVn of each mouse was calculated. Further, the relative tumor volume (RTVn) was calculated based on the TVn of each mouse using the following equation (equation E); the treatment/control (T/C) value (%) was calculated based on the mean RTVn of each drug administration group using the following equation (equation F); and the weight change rate (BWCn) was calculated using the following equation (equation G). RTVn=TVn/TV1 (equation E) T/Cn(%)=(mean RTV of each drug administration group on the last day of the test)/(mean RTV of the control group on the last day of the test)×100 (equation F) BWCn (%)=(BWn−BW1)/BW1×100 (equation G) FIGS. 1 and 2, and Table 21 below show the results.
# [3] = system: Human colon cancer HCT-116 cell lines; experiment: Antitumor effect on tumor cells transplanted into mice 2; type: in vivo
# [4] = system: human acute lymphoblastic leukemia (ALL) CCRF-CEM cell lines; experiment: Antitumor effect on tumor cells transplanted into mice 3; type: in vivo; conditions: CCRF-CEM xenograft in nude mice, compound hydrochlorides intravenously, Dunnett's test
# Method: as §1, §2
# The tumor growth inhibitory effects on human tumors were evaluated as in Test Example 5, except that the compound hydrochloride obtained in Example 122, the compound hydrochloride (Example 64), and human acute lymphoblastic leukemia (ALL) CCRF-CEM cell lines were used, and the animals were assigned to each group in accordance with a stratified randomization procedure when the TV reached 140 to 380 mm3.
# At this time, the cell lines were washed in PBS, and suspended in 50% PBS and 50% Matrigel basement membrane matrix (#356237; produced by BD Biosciences) at a concentration of 1×10^8 cells/mL. 0.1 mL of this cell suspension was subcutaneously implanted to the right chest of 6-week-old BALB/cAJcl-nu/nu mice (nude mice) (produced by CLEA Japan, Inc.). The compound hydrochloride (Example 122) was intravenously administered in an amount of 5 mL per 1 kg of body weight on days 1 and 8, and the compound hydrochloride (Example 133) was intravenously administered in an amount of 5 mL per 1 kg of body weight on days 1 and 8.
# [5] = system: human acute lymphoblastic leukemia (ALL) CCRF-CEM cell lines; experiment: as above; type: in vivo; conditions: CCRF-CEM xenograft in nude mice, 120 mg/kg/day intravenous
"IC50 (carbonic anhydrase II; 4-nitrophenyl acetate esterase activity, absorbance at 405 nm) [µM]",IC50 [1] [µM],inhibitory activity against carbonic anhydrase II (carbonic anhydrase II),SMILES,"T/C15 (%) ([2]; HCT-116 s.c. in BALB/cAJcl-nu/nu mice, 120 mg/kg/day intravenously on days 1, 4, 8, 11, day 15)","RTV15 comparison with the control ([2]; HCT-116 xenograft, Dunnett's test)","BWC15 (%) Mean ± SD ([2]; body weight change, 120 mg/kg/day intravenously on days 1, 4, 8, 11, day 15) [%]","T/C15 ([3]; HCT-116 xenograft in mice, 120 mg/kg/day intravenous, administration days 1, 4, 8, 11, day 15) [%]","RTV15 comparison with the control ([3]; HCT-116 xenograft, hydrochloride compound of Example 55, Dunnett's test)","BWC15 Mean ± SD ([3]; body weight change rate, HCT-116 xenograft in mice, 120 mg/kg/day intravenous, days 1, 4, 8, 11, day 15) [%]",RTV comparison with the control on day 15 [4],"T/C15 ([5]; administration days 1, 4, 8, 11, day 15) [%]","BWC15 Mean ± SD ([5]; body weight change rate, days 1, 4, 8, 11, day 15) [%]"
0.012,> 10,,"NS(=O)(=O)OC[C@@H]1C[C@@H](n2ccc3c(N[C@H]4CCc5ccccc54)ncnc32)C[C@@H]1O [Comparative Example, N-[(1S)-1-indanyl]-7-[(1R)-3α-hydroxy-4α-(sulfamoyloxymethyl)cyclopentyl]-7H-pyrrolo[2,3-d]pyrimidin-4-amine, reference compound]",,,,,,,,,
,,exhibited inhibitory activity,"NS(=O)(=O)OC[C@@H]1C[C@@H](n2ccc3c(N[C@H]4CCc5ccccc54)ncnc32)C[C@H]1O [Comparative Example, N-[(1S)-1-indanyl]-7-[(1R)-3α-hydroxy-4α-(sulfamoyloxymethyl)cyclopentyl]-7H-pyrrolo[2,3-d]pyrimidin-4-amine, reference compound]",36,significantly lower than that of the control,−14.3 ± 5.1,51,significantly lower than that of the control,−8.4 ± 3.2,significantly lower than that of the control,47,6.1 ± 2.6

# Reference: US9963456B2, “Pyrrolopyrimidine compound or salt thereof and compositions containing the pyrrolopyrimidine compound or salt thereof” (TAIHO PHARMACEUTICAL CO., LTD., priority 2014, dated 2018)
